Measured values taken from patent publication US7994127B2, “Treatment of rett syndrome” (Massachusetts Institute of Technology, priority 2007, dated 2011).

Legend:
MeCP2−/y mice = assay: Survival and disease progression (Kaplan-Meier); format: in vivo, mouse
Description: A. (1-3) IGF-1 reduces the frequency of bradycardia in MeCP2 null mice. Pooled heart rate distributions observed across mice from different treatments, in beats per minute (bpm). The Y axis depicts the percent of observations within an experimental group that exceed a given bpm value (X axis). Comparisons are between 8 week old animals (WT or KO), some of which received (1-3)IGF-1 treatment for 6 weeks (KO-T). The KO distribution (pink) was left-shifted compared to the wild-type distribution (black), indicating a significant reduction in the distribution of heart rates. […] B. (1-3)IGF-1 treatment improves locomotor function in MeCP2 null mice. Baseline nocturnal activity was measured by placing animals in cages equipped with a movement detector (infrared beam). […] “N”=number of animals per group. C. (1-3)IGF-1 treated MeCP2 KO mice have longer life expectancy than vehicle treated controls. Kaplan-Meier survival curves for MeCP2-/y mice treated with vehicle (KO, red line) or (1-3)IGF-1 (KO-T, green line). […] MeCP2-/y mice were given daily IP injections of (1-3)IGF-1 (0.01 mg/g body weight/day) every day from 2 weeks of age onward. “n” is the number of mice per experimental group. (1-3)IGF-1 treatment: For the survival measurements, the nocturnal activity analysis and the immunoblot analysis, (1-3) IGF-1 (Bachem Biosciences # H22468) was administered daily via intra-peritoneal injections (0.01 mg/g body weight, vehicle=saline, 0.01% BSA). The treatment was started at P15 and maintained throughout the course of the experiments. For intracellular physiology experiments, the mice were injected daily (0.01 mg/g body weight, vehicle=saline, 0.01% BSA) for 2 weeks, from P15 to P28-P32 when they were used for acute slice preparation. For optical imaging experiments, mice were injected with (1-3) IGF-1 (0.02 mg/g body weight, vehicle=saline, 0.01% BSA) daily from the day of the lid suture to the day of imaging. Slice physiology preparation: Coronal sections (300 μm thick) at or near sensorimotor cortex were cut in <4° C. ACSF using a Vibratome. Slices were incubated at 37° C. for 20 minutes after slicing, and at room temperature for the remainder of the experiment. Slices were transferred to a Warner chamber and recordings were taken from visually identified pyramidal neurons located in layer 5. […] Cells were visualized with an Achroplan 40× water-immersion lens with infrared-DIC optics (Zeiss) and detected with an infrared camera (Hamamatsu) projecting to a video monitor. […] Then in current clamp 10 pulses (500 ms, 40-140 pA at 10 pA increments), were applied to quantify evoked firing rates and cellular excitability. […]

[1] = system: visual cortex of adult MeCP2+/− mice; assay: Ocular dominance plasticity after monocular deprivation, optical imaging of intrinsic signals; format: in vivo, mouse
BDNF = BDNF expression (mRNA micro-array, proBDNF staining) in V1 during monocular deprivation; format: in vivo, mouse; settings: mice subjected to MD and treated; vs MD and control
Protocol: A: Effects of (1-3)IGF-1 (GPE) treatment on the expression levels of BDNF at mRNA level. […] (1-3)IGF-1 treatment is able to increase expression though not to control levels. The RNA levels were obtained with the micro-array analysis described in Tropea et al., 2006. B: Double staining for NeuN (green) and proBDNF (red) antibody. […] Anti-pro BDNF and anti-NeuN were obtained from CHEMICON and used at a concentration of 1:500. The solutions and time of incubations are the following: preincubation in 5% BSA, 0.1% triton, 10% serum, PBS. Incubation with the primary antibodies was carried out at 4 degrees for 3 days in the following solution: 2% BSA, 5% serum, 0.1% triton, PBS. After washings in PBS secondary biotinylated (for pro-BDNF) or Alexa conjugated (for NeuN) antibodies (1:200) were incubated for 2 hours in the same solution of the primary antibodies. The pro-BDNF labeling was detected by adding extravidine tritc (Sigma—1:300). C: Effects of (1-3)IGF-1 (GPE) treatment on the mRNA expression levels of tPA. […] Anti-tPA was purchased from Oxford Biomedical Research and used at a concentration of 1:500. The conditions for incubation were the following: free floating sections were pre-incubated in blocking solution: 10% serum, 0.3% triton, PBS and then left overnight in the primary antibody mix: 1% serum, 0.3% triton, PBS, anti-tPA 1:500, anti Neu-N 1:500. […]

synaptic transmission = assay: Synaptic transmission during direct application of the molecules; format: cell-based, mouse; settings: direct application of the molecule
Description: rhIGF1 produced a similar improvement as (1-3)IGF-1 in all maturational signatures measured, including (A) synaptic transmission levels, and (B) circuit stability (by preventing ocular dominance plasticity) in P60 MeCP2 KO mice.
The above data focused on the (1-3)IGF-1 fragment of IGF1 to promote IGF1 signaling. We also have tested the effect of the full-length IGF1 peptide already approved for pediatric administration in human patients (for short stature indications). We have verified a correspondence in the effects of (1-3)IGF-1 and recombinant human IGF1 (rhIGF1).

NCC(=O)N1CCC[C@H]1C(=O)N[C@@H](CCC(=O)O)C(=O)O [(1-3)IGF-1, glycyl-L-prolyl-L-glutamic acid]
life expectancy, Kaplan-Meier survival curves (FIG. 4C) (MeCP2−/y mice; KO-T vs vehicle treated littermates, P=0.54*10^−7, log rank test): significantly longer life expectancy | increase in life expectancy (MeCP2−/y mice; MeCP2−/y mice treated vs MeCP2 KO littermates, 0.01 mg/g body weight/day IP from 2 weeks of age): ~50% | 0.5 probability survival (MeCP2−/y mice; MeCP2−/y mice treated, untreated KO ~60 days): 90 days | age at which symptoms develop (MeCP2−/y mice; treated MeCP2 knockout mice vs controls): at the same age as controls | maturation of cortical circuitry during ocular dominance plasticity (FIG. 9B) ([1]; (1-3)IGF-1 as in Example 1): promoted to similar degrees | ocular dominance plasticity (ODI shift after MD, FIG. 3C-D) ([1]; female MeCP2+/− mice P60 or more, MD 4 days, 0.02 mg/g body weight IP daily during MD): prevented the OD plasticity | BDNF mRNA expression level in contralateral V1 (FIG. 8A) (BDNF): increase expression in animals subjected to MD, though not to control levels | BDNF protein expression, proBDNF staining (FIG. 8B) (BDNF): increasing BDNF protein expression, though not to control levels | synaptic activity / synaptic transmission levels (FIG. 9A) (synaptic transmission): striking enhancements of synaptic activity
